Experimental data reported in patent US20230133132A1, “NAMPT MODULATORS” (Cytokinetics, Inc., priority 2020, published 2023).

What was measured:
endogenous NAMPT = target: T1, endogenous NAMPT (Homo sapiens, UniProt P43490); assay: Cellular NAD+ modulation assay in SH-SY5Y cells; type: cell-based; details: 40 hours
T1 construct: stimulate the endogenous NAMPT in a native cellular environment; endogenous in cells; host or cells: SH-SY5Y neuroblastoma cells
Method: The compounds described herein were also assayed for their ability to stimulate the endogenous NAMPT in a native cellular environment in the cellular NAD+ modulation assay, which measures the ability of the compound to modulate cellular NAD levels. Increased levels of NAD are expected by compounds that permeate the cells and activate the catalytic activity of the endogenous NAMPT.
Neuroblastoma SH-SY5Y cells were grown in 1:1 mixture of Eagle's Minimum Essential Medium and F12 Medium, along with 10% fetal bovine serum, in a humidified incubator with an atmosphere of 95% air and 5% C02 at 37° C. The assays were initiated by plating 20 μL of SH-SY5Y cells in culture medium with 0.1% fetal bovine serum, at a density of 5000 cells per well to a 384-well Corning™ BioCoat™ Poly-D-Lysine Multiwell Plates. The plates were incubated in the 37° C. incubators for a period of 5 hours. Compounds in DMSO were added to the plates in a volume of 120 nL using the Labcyte Echo Liquid Handlers. 5 μL of a 1.5 uM Doxorubicin solution in assay medium is added to each well. The plates are then incubated for 40 hours. 30 μL of a readout-solution containing 0.2 U/mL Diaphorase enzyme, 40 uM resazurin, 10 uM FMN, 0.8 U/mL Alcohol dehydrogenase, 3% ethanol, 0.4 mg/mL bovine serum albumin, 0.2% Triton X-100 in 100 mM Tris-HCl, 30 mM EDTA, pH 8.4. The plates were read for fluorescence (Excitation/Emission=540 nm/590 nm) using an EnVision plate reader after 60 mins of incubation at ambient temperature.

human NAMPT = human NAMPT (Homo sapiens, UniProt P43490); assay: Human recombinant enzyme assay (NMN fluorescence biochemical assay)
Method: Compounds described herein were assayed for their ability to stimulate the synthesis of nicotinamide mononucleotide (NMN) by the enzyme NAMPT. The human recombinant enzyme assay measures the activation of the enzyme activity by compounds using recombinant enzyme and substrates in a buffered cell-free system. The assay conditions closely mimic cellular environments. Dose responses were measured using an assay to detect the formation of nicotinamide mono-nucleotide. All experiments were performed in the 384-well format. Generally, 0.5 μL of DMSO containing varying concentrations of the test compound was mixed with 10 μL of the enzyme reagent solution. Enzyme reactions were initiated with the addition of 10 μL of a solution containing the substrates. The final assay conditions were as follows: 6 nM human NAMPT, 2.5 mM ATP, 20 μM PRPP and 150 μM nicotinamide in 50 mM HEPES, pH 7.2, 1 mM DTT, 1 mM CHAPS 50 mM NaCl, 100 mM MgCl2. Following an incubation of 60 min at ambient temperature, 10 μL of 20% acetophenone in DMSO was added, followed by 10 μL of 2 M KOH and 40 μL of formic acid. The plates were read for fluorescence (Excitation/Emission=355 nm/460 nm) using an EnVision plate reader after 40 mins of incubation at ambient temperature.

[1] = recombinant human NAMPT, NMN fluorescence, 60 min
[2] = doxorubicin added, cellular NAD readout
[3] = 6 nM human NAMPT, 60 min, NMN formation by fluorescence

human NAMPT, sequence (P43490 whole entry): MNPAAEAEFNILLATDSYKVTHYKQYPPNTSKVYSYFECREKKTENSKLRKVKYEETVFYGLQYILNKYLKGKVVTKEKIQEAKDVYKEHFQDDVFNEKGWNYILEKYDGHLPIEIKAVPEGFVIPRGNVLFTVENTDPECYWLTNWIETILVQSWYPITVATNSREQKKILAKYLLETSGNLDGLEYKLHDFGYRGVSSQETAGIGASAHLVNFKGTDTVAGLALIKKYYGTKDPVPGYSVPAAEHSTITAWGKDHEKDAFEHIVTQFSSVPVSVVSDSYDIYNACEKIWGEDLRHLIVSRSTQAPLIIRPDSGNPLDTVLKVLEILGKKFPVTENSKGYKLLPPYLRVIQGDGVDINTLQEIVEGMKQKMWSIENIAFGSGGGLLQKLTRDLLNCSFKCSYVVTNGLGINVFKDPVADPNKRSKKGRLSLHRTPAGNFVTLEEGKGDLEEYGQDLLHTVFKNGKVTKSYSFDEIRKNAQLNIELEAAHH
T1 sequence (P43490 whole entry): as above

| EC50 (endogenous NAMPT; doxorubicin) [µM] | EC50 (human NAMPT; [1]) [µM] | AC0.3 (endogenous NAMPT; [2]) [µM] | AC1.4 (the concentration of compounds that generates 40% higher activity over basal) (human NAMPT; [3]) [µM] | Structure (SMILES) | other results |
| --- | --- | --- | --- | --- | --- |
| 2.3 | 10.6 | – | – | CC(C)(O)CN1CCN(Cc2ccc(NC(=O)NCc3ccccc3)cc2)CC1 [Comparator A, reference compound] | potency relative to compounds with a halo or methoxy substituent at the R^1 position, as measured by AC1.4 (human NAMPT; comparison of AC1.4 values): five to ten times less potent |
| > 20.1 | 19.7 | – | – | CC(C)(O)CN1CCN(Cc2ccc(NC(=O)NCc3ccncc3)cc2)CC1 [Comparator B, reference compound] | – |
| > 20.1 | 35.1 | – | – | CC(C)(O)CN1CCN(Cc2ccc(NC(=O)NCc3cn[nH]c3)cc2)CC1 [Comparator C, reference compound] | – |
| > 20.1 | 36.5 | – | – | CC(C)(O)CN1CCN(Cc2ccc(NC(=O)NCc3cnco3)cc2)CC1 [Comparator D, reference compound] | – |
| 0.16 | 3.1 | 0.15 | 0.15 | CC(C)(O)CN1CCN(Cc2ccc(NC(=O)NCc3ccc(Cl)cc3)cc2)CC1 [Compound 36, {[(4-chlorophenyl)methyl]amino}-N-(4-{[4-(2-hydroxy-2-methylpropyl)piperazinyl]methyl}phenyl)carboxamide] | AC0.3 designation (endogenous NAMPT; [2]): A (AC0.3 values that are less than 0.5 μM) |
| – | – | – | – | C[C@H](NCc1ccccc1)c1ccc(NC(=O)NCc2ccc(Cl)cc2)cc1 [Compound 40, [(4-{(1S)-1-[benzylamino]ethyl}phenyl)amino]-N-[(4-chlorophenyl)methyl]carboxamide] | AC0.3 (endogenous NAMPT; doxorubicin, class symbols): C (AC0.3 values that are greater than 2.5 μM); AC1.4 Human (human NAMPT; recombinant human NAMPT, NMN fluorescence, 60 min, class symbols): A (AC1.4 values that are less than 0.5 μM) |
| 1.4 | 7.5 | 1.2 | 0.78 | CC(C)(O)CN1CCN(Cc2ccc(NC(=O)NCc3ccc(F)cc3)cc2)CC1 [Compound 167, {[(4-fluorophenyl)methyl]amino}-N-(4-{[4-(2-hydroxy-2-methylpropyl)piperazinyl]methyl}phenyl)carboxamide] | AC1.4 designation (human NAMPT; [3]): B (AC1.4 values that are between 0.5 μM and 2.5 μM) |
| 0.79 | 10.6 | 0.86 | 0.42 | COc1ccc(CNC(=O)Nc2ccc(CN3CCN(CC(C)(C)O)CC3)cc2)cc1 [Compound 242, 1-(4-((4-(2-hydroxy-2-methylpropyl)piperazin-1-yl)methyl)phenyl)-3-(4-methoxybenzyl)urea] | – |
